Reference: article PMC6330446, “An integrated characterization of contractile, electrophysiological, and structural cardiotoxicity of Sophora tonkinensis Gapnep. in human pluripotent stem cell-derived cardiomyocytes” (Stem Cell Research & Therapy, 2019)
Entries after “also recorded” stand apart in the source; their conditions may differ. Read-outs that look alike come from different tables or passages of the source.

Experiments:
hiPSC-CMs [1] = details: for Cell viability (in words): alkaloids 2, 10, 50 μM, aconitine 1 μM
Experimental: (§1) After plating for about 3 days, CMs matured and began to beat. At this time, different compounds were added, and experiments were performed 24 h after treatment. The experiments were grouped as follows: control group (normal medium); matrine, oxymatrine, sophocarpine, and cytisine treatment (2, 10, 50 μM) groups; and aconitine treatment (1 μM) group. The doses of toxicity studies above were determined by the effective therapeutic doses reported and included or exceeded the therapeutic dose.
CMs were incubated in 10% CCK-8 (Dojindo, Kumamoto, Japan) that was diluted in normal culture medium at 37 °C until a visual color conversion occurred. The absorbance of each well was measured using a microplate reader (Spectrafluor, TECAN, Sunrise, Austria) at 450 nm. Three individual experiments were performed. All samples were operated in duplicate.
A 96-well plate was used to seed hiPSC-CMs at a concentration of 5 × 10^4 cells per well. The cultured cells were treated with different concentrations of compounds and were incubated for another 48 h. CMs were digested with trypsin, and a small amount of cell suspension was added into the same amount of trypan blue solution. Countstar Automated Cell Counter IC1000 (Elite Life Sciences, Shanghai, China) was used to count the number of total and living cells. Data were presented as the mean ± SEM, n ≥ 3.

hiPSC-CMs [2] = test: SOD, GSH and MDA assay; format: cell-based, human; details: 2, 10, 50 μM
Experimental: as §1
Cell treatment was the same as discussed in the “Compound treatment” section. After reaching the predetermined time, the cells were washed with 4 °C physiological saline and later were added into the lysate and appropriately pipetted. After centrifuging at 1.2 × 10^4 rpm for 5 min, the supernatant was obtained to measure the levels of SOD, GSH and MDA using a commercially available kit (Beyotime Biotechnology, Shanghai, China) following the manufacturer's instructions. Data were presented as the mean ± SEM, n ≥ 3.

hiPSC-CMs [3] = test system: hiPSC-CMs
Experimental: as §1
Cell treatment method was the same as above. After reaching the predetermined time, 120 μl of the supernatant of each well was taken for measuring LDH leakage using a commercially available kit (Beyotime Biotechnology, Shanghai, China) following the manufacturer’s instructions. Data were presented as the mean ± SEM, n ≥ 3.

hiPSC-CMs [4] = test: Cardio-NLCS impedance and extracellular field potential (EFP) recording; format: cell-based, human; details: for Amplitude (EFP): lowest concentration that demonstrated a significant change compare with the control group / Beat rate: lowest concentration that demonstrated a significant change compare with the control group / FPD: lowest concentration that demonstrated a significant change compare with the control group / Amplitude (IMP): lowest concentration that demonstrated a significant change compare with the control group / Base impedance: lowest concentration that demonstrated a significant change compare with the control group: 2, 10, 50 μM tested, recorded over 24 h; for Base impedance vs the control group (in words) / Beat rate vs the control group (in words) / Contractile amplitude (amplitude of IMP) vs the control group (in words) / FPD value vs the control group (in words) / Potential amplitude (amplitude of EFP) vs the control group (in words): 2, 10, 50 μM, 24 h recording
Experimental: as §1
Cardio-NLCS (Optoprobe Science LTD, Canada) is a turn-key system for efficient impedance and extracellular field potential (EFP) measurements of cell monolayers or tissue preparations. NSP-96 dedicated for Cardio-NLCS should be coated with BD and the wells should not run dry before adding the cell suspension. After seeding, the medium was not exchanged for 12 h. Subsequently, the medium exchange was completed once a day for 2–3 days and every 2 days thereafter. Adding compounds required a complete solution exchange to allow for exact dosing. After the cells were allowed to re-equilibrate for 2–3 h, the 2× concentrated compounds were added by exchanging half of the medium per well. In this experiment, several indexes (base impedance, amplitude, beat rate, and FPD) were recorded at the start of the experiment (control), then every 5 min for 4 h after compound application and every 30 min the same as cell growth period detection, lasting a minimum of 24 h. In this way, both time and concentration-dependent effects could be monitored. Impedance and EFP data analyses were taken every 4 h after compound administrations.

GCaMP hESC-CMs = format: cell-based, human
Experimental: The hESC-CMs in this experiment can express the GCaMP reporter gene by gene editing, and green fluorescence marker can be observed by a fluorescence microscope. The fluorescence intensity is proportional to Ca^2+ concentration. The CMs were seeded into 96-well plates at 5000/well and were administered the same as above. The fluorescence intensities of hESC-CMs were monitored using an IncuCyte™ S3 ZOOM cell imaging system (Essen BioScience, Ann Arbor, MI). Data were presented as the mean ± SEM, n ≥ 3.

hiPSC-CMs [5] = format: cell-based, human
Experimental: Cells were incubated in a maintaining medium containing 10 μM DCFH-DA (Beyotime Biotechnology, Shanghai, China) for 30 min at 37 °C in the dark. The measurement of ROS was performed with IncuCyte™ S3 ZOOM cell imaging system (Essen BioScience, Ann Arbor, MI). TissueQuest 6.0 was used for the quantitative analysis of ROS formation. Data were presented as the mean ± SEM, n ≥ 3.

[6] = hiPSC-CMs, 2, 10, 50 μM tested, 24 h
[7] = at the lowest effective concentration

Structure (SMILES)	Cell viability: lowest concentration that demonstrated a significant change compare with the control group (hiPSC-CMs [1]; [6]) [µM]	Cell viability (in words) (hiPSC-CMs [1]; hiPSC-CMs, 24 h)	GSH activity (in words) (hiPSC-CMs [2])	MDA level (in words) (hiPSC-CMs [2])	SOD activity (in words) (hiPSC-CMs [2])	LDH leakage: lowest concentration that demonstrated a significant change compare with the control group (hiPSC-CMs [3]; hiPSC-CMs, 2, 10, 50 μM tested) [µM]	Amplitude (EFP): lowest concentration that demonstrated a significant change compare with the control group (hiPSC-CMs [4]) [µM]	Beat rate: lowest concentration that demonstrated a significant change compare with the control group (hiPSC-CMs [4]) [µM]	FPD: lowest concentration that demonstrated a significant change compare with the control group (hiPSC-CMs [4])	Base impedance vs the control group (in words) (hiPSC-CMs [4])	Beat rate vs the control group (in words) (hiPSC-CMs [4])	Contractile amplitude (amplitude of IMP) vs the control group (in words) (hiPSC-CMs [4])	FPD value vs the control group (in words) (hiPSC-CMs [4])	Potential amplitude (amplitude of EFP) vs the control group (in words) (hiPSC-CMs [4])	Amplitude (EFP): initial time of significant change compare with the control group (hiPSC-CMs [4]; [7]) [h]	Amplitude (IMP): initial time of significant change compare with the control group (hiPSC-CMs [4]; [7]) [h]	Beat rate: initial time of significant change compare with the control group (hiPSC-CMs [4]; [7]) [h]	Amplitude (IMP): lowest concentration that demonstrated a significant change compare with the control group (hiPSC-CMs [4]) [µM]	Base impedance: lowest concentration that demonstrated a significant change compare with the control group (hiPSC-CMs [4]) [µM]	Base impedance: initial time of significant change compare with the control group (hiPSC-CMs [4]; [7]) [h]	further results
O=C1CCC[C@@H]2[C@H]3CCC[N+]4([O-])CCC[C@@H](CN12)[C@@H]34 (stereo partly shown) [Oxymatrine, oxymatrine]	10	decreased dose-dependently	sharply lowered	rose	sharply lowered	2	10	10	No effect	no change, except 10 μM oxymatrine treatment	slightly lower; also recorded: large fluctuation	upward dose-dependent trend	remained stable in all groups	upward dose-dependent trend; also recorded: large fluctuation	12	4	4				
O=C1CCC[C@@H]2[C@H]3CCCN4CCC[C@@H](CN12)[C@@H]34 [Matrine, matrine]		decreased dose-dependently	sharply lowered	rose	sharply lowered	2	50	2	50 µM	slightly lowered	slightly lowered	upward trend	rose in the first half of matrine treatment	upward trend	20	4		10	10	16	Fluorescence intensity of calcium, [Ca^2+]i (in words) (GCaMP hESC-CMs; GCaMP hESC-CMs, high dose of alkaloids (50 μM), aconitine 1 μM): increased significantly; [Ca^2+]i: lowest concentration that demonstrated a significant change compare with the control group (GCaMP hESC-CMs; hESC-CMs, 2, 10, 50 μM tested): 50 µM; Beat rate in comparison with the low-dose group (in words) (hiPSC-CMs [4]; higher concentrations 10, 50 μM): an increase in beat rate can be detected; Beat rate (in words) (hiPSC-CMs [4]; low, therapeutically relevant concentration 2 μM): a decrease in the beat rate can be detected; ROS level: lowest concentration that demonstrated a significant change compare with the control group (hiPSC-CMs [5]; hiPSC-CMs, 2, 10, 50 μM tested): 50 µM; ROS fluorescence / ROS production (in words) (hiPSC-CMs [5]; hiPSC-CMs, high dose of alkaloids (50 μM), aconitine 1 μM): induced ROS production in excess
O=c1cccc2n1C[C@@H]1CNC[C@H]2C1 [Cytisine, cytisine]		decreased dose-dependently	sharply lowered	rose	sharply lowered		50	10	No effect	no change except 50 μM cytisine treatment		upward trend	no significant effect	upward trend	16	4		10	50	12	Cell viability: lowest concentration that demonstrated a significant change compare with the control group (hiPSC-CMs [1]; human): 50 µM; LDH leakage: lowest concentration that demonstrated a significant change compare with the control group (hiPSC-CMs [3]; human): 2 µM; [Ca^2+]i: lowest concentration that demonstrated a significant change compare with the control group (GCaMP hESC-CMs; human): 50 µM; Beat rate vs the control group (in words) (hiPSC-CMs [4]; listed as cytisine): slightly lowered; FPD value vs the control group (in words) (hiPSC-CMs [4]; listed as cytisine): remained stable in all groups; ROS level: lowest concentration that demonstrated a significant change compare with the control group (hiPSC-CMs [5]; human): 50 µM
O=C1C=CC[C@@H]2[C@H]3CCCN4CCC[C@@H](CN12)[C@@H]34 [Sophocarpine, sophocarpine]	10	decreased dose-dependently	sharply lowered	rose	sharply lowered	2	50	50	50 µM	no change		upward dose-dependent trend	large differences in the first 12 h and remained stable after 15 h of treatment	no change	16		4	50	50	8	[Ca^2+]i: lowest concentration that demonstrated a significant change compare with the control group (GCaMP hESC-CMs; hESC-CMs, 2, 10, 50 μM tested): 50 µM; FPD after high-dose administration (in words) (hiPSC-CMs [4]; 50 μM): immediately increased in a jump; FPD: period of time of significant change compare with the control group (hiPSC-CMs [4]; [7]): 0 to 12 h; ROS level: lowest concentration that demonstrated a significant change compare with the control group (hiPSC-CMs [5]; hiPSC-CMs, 2, 10, 50 μM tested): 10 µM
